In PubChem BioAssay AID844 (SRMLSC, 2007):
Active and inactive are the calls of the source. How the calls were made is not given here.

Test system: MRP1 cells, doxorubicin viability shift, 10 uM compound
Assay: viability protection against doxorubicin, MRP-1 line – cell-based, doxorubicin EC50 shift, dose response (AID 844)
Settings: for EC50: measured here: doxorubicin EC50 with compound

Row | SMILES | fold increase in Dox EC50 | EC50 [µM]
1 | Cc1ccc(C2CC(C(F)(F)F)n3nc(C(=O)NCc4c(C)nn(C)c4C)c(Cl)c3N2)cc1 (stereo not drawn) | 1.13 (inactive) | 6.1
2 | CCCCCOc1ccc(CSc2ncn[nH]2)cc1 | 0.68 (inactive) | 3.69
3 | Cc1ccccc1Cn1nc(C)c(NC(=O)c2noc3c2CCc2ccccc2-3)c1C | 1.96 | 10.6
4 | COc1ccc(CNc2nc(NCc3ccc(OC)cc3)n(S(C)(=O)=O)n2)cc1 | 1.07 (inactive) | 5.78
5 | Cc1ccc(/C=N/NC(=O)CSCc2ccc(Cl)cc2)cc1 | 1.19 (inactive) | 6.44
6 | Oc1c(C(c2cccs2)N2CCN(c3ccc(F)cc3)CC2)sc2ncnn12 (stereo not drawn) | 1.32 (inactive) | 7.1
7 | O=C(Nc1nc(COc2ccccc2)cs1)c1ccccc1F | 1.76 | 9.49
8 | CCOC(=O)c1c(-c2cccs2)csc1NC(=O)CSc1ncn[nH]1 | 0.2 (inactive) | 1.09
9 | O=C(Cn1c(=O)c2c(ncn2Cc2ccccc2)n(Cc2ccccc2)c1=O)N1CCc2ccccc21 | 1.07 (inactive) | 5.76
10 | O=C1CSC2=NCN(c3ccccc3)CN12 | 0.55 (inactive) | 2.95
11 | O=C(Nc1ccn(Cc2ccccc2F)n1)c1ccc(COc2ccc(Cl)cc2Cl)o1 | 0.95 (inactive) | 5.15
12 | Cc1ccc(Nc2nnc(-c3ccc(N4CCOCC4)c([N+](=O)[O-])c3)c3ccccc23)cc1 | 0.61 (inactive) | 3.28
13 | Oc1c(C(c2cccs2)N2CCN(c3ccccc3)CC2)sc2ncnn12 (stereo not drawn) | 0.93 (inactive) | 5.02
14 | CCCOc1ccc(C(=O)Nc2ccc(N3CCN(C(C)=O)CC3)cc2)cc1 | 1.06 (inactive) | 5.75
15 | Cc1cccc(C)c1N=Cc1c(O)n(-c2nccs2)c(=O)c2ccccc12 | 0.6 (inactive) | 3.22
16 | O=C(CC(Nc1ccc(F)cc1)C(=O)OCC(=O)c1cccs1)c1ccccc1 (stereo not drawn) | 0.69 (inactive) | 3.73
17 | O=C(Nc1nc(=O)n(C(=O)C2CC2)s1)c1ccccc1 | 0.55 (inactive) | 2.97
18 | N#CCCNC(=O)Cn1c(COc2ccc(Cl)cc2)nc2ccccc21 | 0.85 (inactive) | 4.57
19 | O=C(COc1ccc(Br)cc1)N1CCN(C2CCCC2)CC1 | 1.08 (inactive) | 5.85
20 | O=C1CC(N2CCC(n3c(=O)[nH]c4ccccc43)CC2)C(=O)N1c1ccc(F)cc1 (stereo not drawn) | 1.41 (inactive) | 7.59
21 | Nn1c(SCC(=O)Nc2ccccc2F)nc2ccccc2c1=O | 1.41 (inactive) | 7.59
22 | Oc1c(C=C2N=c3ccccc3=N2)sc(=S)n1-c1ccc(F)cc1 | 0.63 (inactive) | 3.39
23 | COc1ccc(CNc2nc3c(c(=O)n(Cc4ccc(Cl)cc4)c(=O)n3C)n2C)cc1 | 0.83 (inactive) | 4.48
24 | N#C/C(=N\Nc1ccccc1F)C(=N)N1CCCCC1 | 0.79 (inactive) | 4.26
25 | COC(=O)/C(=C/Nc1ccc(O)cc1)[N+](=O)[O-] | 0.21 (inactive) | 1.12
26 | Cc1cc(C)n(-c2ccc(C(=O)Nc3cccc(S(=O)(=O)N(C)C)c3)cc2)n1 | 0.73 (inactive) | 3.93
27 | Cc1nc(NC(=S)NC(=O)c2ccccc2)sc1C(=O)N(C)C | 1.24 (inactive) | 6.71

Row | SMILES | fold increase in Dox EC50 | EC50 [µM]
28 | Cc1cc(C)c(NC(=O)c2sc3nc4c(cc3c2N)C(=O)CC(C)(C)C4)c(C)c1 | 0.7 (inactive) | 3.76
29 | CCOC(=O)c1[nH]c2cc(OC)c(OC)cc2c1N | 0.96 (inactive) | 5.17
30 | Nc1ccc(C(=O)OCC(=O)N2c3ccccc3Sc3ccccc32)cc1[N+](=O)[O-] | 1.29 (inactive) | 6.97
31 | O=C(N/N=C/c1ccccn1)c1cc(-c2ccc3ccccc3c2)n[nH]1 | 0.75 (inactive) | 4.04
32 | CCOc1ccc(NC(=O)Nc2cc(-c3ccccc3)sc2C(=O)OC)cc1 | 0.62 (inactive) | 3.34
33 | CC1CC(C)CN(c2ncnc3c2cnn3-c2ccc(Cl)cc2)C1 (stereo not drawn) | 0.35 (inactive) | 1.89
34 | c1ccc2c(c1)Nc1nccnc1S2 | 0.12 (inactive) | 0.637
35 | Cc1cccc(OCc2nc(-c3nonc3N)no2)c1C | 0.78 (inactive) | 4.22
36 | CC(/C=C1\SC(=S)N(CCCC(=O)Nc2ccc(C(=O)O)cc2)C1=O)=C\c1ccccc1 | 0.55 (inactive) | 2.98
37 | CC/C(=N\NC(=O)C(N)=O)c1ccccc1O | 0.61 (inactive) | 3.29
38 | CC(SC1=NCCS1)C(=O)Nc1nnc(-c2ccc(Br)cc2)s1 (stereo not drawn) | 0.97 (inactive) | 5.24
39 | COc1ccccc1NS(=O)(=O)c1cc(NC(=O)/C=C/c2cccs2)ccc1N1CCOCC1 | 0.81 (inactive) | 4.36
40 | O=C(NN1C(=O)/C(=C\c2cccnc2)SC1=S)C(c1ccccc1)c1ccccc1 | 0.84 (inactive) | 4.56
41 | N#Cc1nc(COc2ccccc2)oc1N1CCCCCC1 | 0.59 (inactive) | 3.17
42 | Cc1ccc(N/N=C(\C#N)C(=N)N2CCOCC2)cc1 | 0.92 (inactive) | 4.95
43 | CCCN1C(=O)/C(=N\OCC(=O)NC23CC4CC(CC(C4)C2)C3)c2ccccc21 | 1.01 (inactive) | 5.43
44 | CCOc1ccc(C2CC(c3ccc(CC)cc3)Nc3nc(N)nn32)cc1 (stereo not drawn) | 1.24 (inactive) | 6.69
45 | O=C(CSc1nc2ccccc2o1)NCc1ccc2c(c1)OCO2 | 1.15 (inactive) | 6.23
46 | Cc1ccc(-c2noc(C3CCCN(S(=O)(=O)c4ccc5ccccc5c4)C3)n2)o1 (stereo not drawn) | 1.58 | 8.55
47 | CCCCCCC1CC(CSc2ncn[nH]2)OC1=O (stereo not drawn) | 1.14 (inactive) | 6.14
48 | COc1ccc(OCc2nc(C#N)c(N3CCN(c4ccc(OC)cc4)CC3)o2)cc1 | 0.76 (inactive) | 4.08
49 | O=C(Nc1ccc(F)cc1)c1c(O)c2c(n(Cc3ccccc3)c1=O)CCCC2 | 1.31 (inactive) | 7.07
50 | CCc1nnc(NC(=O)c2ccc(-c3ccc(Cl)cc3)o2)s1 | 1.19 (inactive) | 6.41
51 | O=C(CCc1ccccc1)Nc1nnc(-c2ccc3c(c2)CCCC3)o1 | 0.25 (inactive) | 1.36
52 | COc1ccc(C(=O)NCc2ccc3c(c2)OCO3)cc1S(=O)(=O)N(C)Cc1ccccc1 | 0.75 (inactive) | 4.08
53 | Clc1ccc(Cc2nnc(-c3ccccc3Br)o2)cc1 | 1.14 (inactive) | 6.15
54 | CCCCCCCOc1ccc(-c2ccc(C#N)cn2)cc1 | 0.67 (inactive) | 3.63
